Data published in patent US20240408057A1, “Composition for preventing or treating cachexia and muscle loss” (METAFINES.CO.LTD., priority 2023, published 2024).

Experiments:
GDF-15 = GDF-15 expression (Western blot) in CCM-treated C2C12 myotubes; format: cell-based, mouse; conditions: C2C12 myotubes + CCM, 72 hours; comparison experiment with components alone and in combination
Experimental: C2C12 cell line was dispensed into a 6-well plate at 4.0×10^5 cells/well and cultured in DMEM medium containing 10% fetal bovine serum (FBS) under 37° C. and 5% CO2 conditions for one day. When the cell density reached about 80%, the medium was replaced with a differentiation medium and the cells were cultured for additional 3 days. […] After culturing for 72 hours, the cells were collected and analyzed for PDK-4, which is a target marker, by Western blot and the results are summarized in FIG. 6.
The analysis was performed in the same manner as in Experimental Example 4-1 except for analyzing GDF-15 as a target marker for a Western blot, and the results are summarized in FIGS. 8 and 9.
The analysis was performed in the same manner as in Experimental Example 3-1 except for analyzing PDK-4 as a target marker for Western blot, and the results are summarized in FIGS. 10 and 11.
(§1) A C2C12 cell line was dispensed into a 6-well plate at 4.0×10^5 cells/well, and then cultured in DMEM medium containing 10% fetal bovine serum (FBS) under 37° C. and 5% CO2 conditions for one day. When the cell density reached about 80%, the medium was replaced with a differentiation medium and the cells were cultured for additional 3 days.

Wire hanging test = format: in vivo, Balb/c mice; conditions: CT26 Balb/c cachexia model; G4 to G6; compared to G3 megestrol (positive control)
Experimental: Along with the above, a wire hanging test was performed once a week, and the animal was placed on top of a wire cage, and then turned the cage upside down and hung over the home cage, and the waiting time until the animal fell was recorded and summarized in FIG. 53B.

C2C12 myotube cells = assay: Myotube diameter (crystal violet, Image J) of CCM-treated C2C12 myotubes; format: cell-based, mouse; conditions: C2C12 myotubes + CCM 1:1, 72 hours
Experimental: A C2C12 cell line was dispensed into a 6-well plate at 4.0×10^5 cells/well, and then cultured in DMEM medium containing 10% fetal bovine serum (FBS) under 37° C. and 5% CO2 conditions for one day. When the cell density reached about 80%, the medium was replaced with a differentiation medium and the cells were cultured for additional 3 days. […] The myotube diameter was measured using Image J from the above image, and the change in myotube cell diameter is summarized in FIG. 17B. A C2C12 cell line was dispensed into a 6-well plate at 4.0×10^5 cells/well, and then cultured in DMEM medium containing 10% fetal bovine serum (FBS) under 37° C. and 5% CO2 conditions for one day. When the cell density reached about 80%, the medium was replaced with a differentiation medium and the cells were cultured for additional 3 days. […] The myotube diameter was measured using Image J from the above images, and the changes in myotube cell diameter are summarized in FIG. 24B.

MyHC = MyHC expression (Western blot) in CCM-treated C2C12 myotubes; format: cell-based, mouse; conditions: 72 hours, compared to other experimental groups (components alone and in combination)
Experimental: (§2) A C2C12 cell line was dispensed into a 6-well plate at 4.0×10^5 cells/well, and then cultured in DMEM medium containing 10% fetal bovine serum (FBS) under 37° C. and 5% CO2 conditions for one day. When the cell density reached about 80%, the medium was replaced with a differentiation medium and the cells were cultured for additional 3 days. After confirming completion of differentiation of the cells, the cells were treated with a mixture, in which the differentiation medium and cancer-cell conditioned medium (CCM) were mixed at a 1:1 ratio, to form a control group, and simultaneously, a test group was set up by treating with the calcium salts of Preparation Examples 1 to 3 according to three predetermined concentrations.
as §1

[1] = molecular target: T1, human recombinant cyclooxygenase COX-2 (Homo sapiens, UniProt P35354); assay: Inhibition of COX2 (Ampliflu Red spectrofluorescence); format: biochemical; conditions: 10 μM, compared with untreated group
T1 construct: host or cells: insect Sf21 cells
T1 sequence (P35354 18-604): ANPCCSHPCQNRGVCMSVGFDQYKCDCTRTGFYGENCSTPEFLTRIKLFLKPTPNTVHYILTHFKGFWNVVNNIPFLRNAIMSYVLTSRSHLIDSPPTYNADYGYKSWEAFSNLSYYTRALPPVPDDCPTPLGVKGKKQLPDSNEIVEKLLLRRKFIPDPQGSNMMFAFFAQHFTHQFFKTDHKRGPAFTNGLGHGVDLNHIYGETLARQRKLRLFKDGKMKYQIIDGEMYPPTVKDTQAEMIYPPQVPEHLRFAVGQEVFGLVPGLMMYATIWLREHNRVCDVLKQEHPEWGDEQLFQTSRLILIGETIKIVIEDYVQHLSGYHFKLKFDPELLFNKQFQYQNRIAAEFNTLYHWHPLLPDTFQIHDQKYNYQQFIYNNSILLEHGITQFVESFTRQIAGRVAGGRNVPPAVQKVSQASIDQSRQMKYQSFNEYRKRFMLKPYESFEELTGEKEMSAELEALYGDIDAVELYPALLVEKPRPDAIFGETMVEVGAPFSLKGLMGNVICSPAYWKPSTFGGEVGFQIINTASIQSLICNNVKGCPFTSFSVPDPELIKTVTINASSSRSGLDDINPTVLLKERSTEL
Experimental: At this time, the concentration of the calcium salt contained in the buffer solution was set to 10 μM. As an enzyme, 34 U/mL of human recombinant cyclooxygenase COX-2 expressed in insect Sf21 cells was further added to the buffer solution, and pre-reacted at 25° C. for 15 minutes. In addition, 3 μM arachidonic acid and 100 μM Ampliflu Red were added and reacted at 25° C. for 3 minutes. The amount of Resofurin produced in the reaction process was measured at 535 nm/590 nm by a spectrofluorescence method, and the inhibitory effect on COX2 was confirmed by comparing with the calcium salt untreated group.

Atrogin1 = Atrogin1 expression in mouse muscle tissue, CT26 cachexia model; format: in vivo, Balb/c mice; conditions: CT26 Balb/c cachexia model, 21 days
Excerpt: The mice were sacrificed, and the skeletal muscle in the quadriceps was extracted during autopsy, and tissue was homogenized, and proteins were extracted through RIPA lysis buffer, followed by Western blot analysis.

IL-1β = IL-1β in mouse blood, CT26 cachexia model; format: in vivo, Balb/c mice; conditions: CT26 Balb/c cachexia model, 21 days; G4 PO 200 mpk, G5 IV 100 mpk, G6 IV 200 mpk; vs vehicle control G2
Experimental: The mice were sacrificed, and IL-1β and lactate were analyzed using the blood serum collected at autopsy, and the results are summarized in FIGS. 48A and 48B.
In FIG. 48, each group represents the following.

Myogenin = Myogenin expression (Western blot) in CCM-treated C2C12 myotubes; format: cell-based, mouse; conditions: 72 hours, compared to other experimental groups (components alone and in combination)
Experimental: as §2, §1

MuRF1 = MuRF1 expression (Western blot) in CCM-treated C2C12 myotubes; format: cell-based, mouse; conditions: 72 hours, compared to other experimental groups (components alone and in combination)
Experimental: as §2, §1

Calpain 3 = Calpain 3 expression in mouse muscle tissue, CT26 cachexia model; format: in vivo, Balb/c mice; conditions: CT26 Balb/c cachexia model, 21 days, G6 IV 200 mpk
Excerpt: In FIG. 47, each group represents the following.

O=C([O-])C(Cl)Cl.O=C1OC(C(O)CO)C([O-])=C1O.[Ca+2] (stereo not shown) [Preparation Example 1, calcium salts of ascorbic acid and dichloroacetic acid]
expression of GDF-15 (GDF-15): inhibited | wire hanging test (Wire hanging test): level similar | diameter of myotube cells (C2C12 myotube cells; predetermined concentration, compared to CCM): increased the diameter up to a level similar to that of the normal control group (UCM) | concentration from which the diameter reduction of myotubes was significantly inhibited (C2C12 myotube cells; three predetermined concentrations): ≥ 10 µM | expression of MyHC (MyHC): excellent effect of inhibiting the decrease of expression | inhibitory effect on COX2 [1]: 74% | expression level of Atrogin1 in quadriceps (Atrogin1; G4 PO 200 mpk, G5 IV 100 mpk, G6 IV 200 mpk, vs vehicle control G2): decrease in the expression levels | expression level of Atrogin1 in quadriceps (Atrogin1; G4 to G6, compared to G3 megestrol 125 mpk oral): excellent effects decreasing the expression levels | IL-1β in blood serum (IL-1β): decrease in the expression levels | expression of Myogenin (Myogenin): excellent effect of inhibiting the decrease of expression | expression of MuRF1 (MuRF1): excellent effect of inhibiting the increase of expression | expression level of Calpain 3 in quadriceps (Calpain 3; G4 PO 200 mpk, G5 IV 100 mpk, vs vehicle control G2): increase in the expression level | expression level of Calpain 3 in quadriceps (Calpain 3; compared to G3 megestrol 125 mpk): excellent effect of increasing the expression level
